The source of these data is PubChem BioAssay (NCI).

Test systems include OVCAR-4 ovarian; HS 578T breast; K-562 leukemia; LOX IMVI melanoma; DU-145 prostate; SK-MEL-28 melanoma; KM20L2 colon; HOP-18 NSCLC; A498 renal; SW-620 colon.
What all share (test): growth of human tumour cells (NCI), 48 h

Molecules are shown by their SMILES. Where “and” joins values, the source holds several entries; their conditions need not be identical. Identical values can stand only once.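 Protocol summary: plate cells (96-well), add compound at 5 concentrations, incubate 48 h, interpolate endpoints linearly. Here, GI50 denotes the concentration required for 50% inhibition of growth. At the TGI there is no net growth.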 Some results are limits rather than exact numbers.

Turning to `COc1nc(N)nc2nc[nH]c12`, the GI50 in the assay with OVCAR-4 ovarian was > 800 µM and 982 µM; with HS 578T breast it was 603 µM; in the assay with K-562 leukemia it was greater than 800 µM; in the assay with LOX IMVI melanoma it was 677 µM and 489 µM; in the assay with DU-145 prostate it was 720 µM; with SK-MEL-28 melanoma it was greater than 1000 µM. The GI50 in the assay on KM20L2 colon was greater than 800 µM; in the assay on HOP-18 NSCLC, 641 µM; in the assay with A498 renal, 306 µM and 335 µM; with SW-620 colon, greater than 1000 µM. The TGI in the assay on OVCAR-4 ovarian is 500 µM and > 800 µM and > 1000 µM; in the assay on HS 578T breast, 500 µM and > 1000 µM; in the assay on K-562 leukemia, greater than 1000 µM; in the assay on LOX IMVI melanoma, 500 µM and 800 µM and > 1000 µM; in the assay with DU-145 prostate, 500 µM and > 1000 µM; with SK-MEL-28 melanoma, greater than 1000 µM. Further, the TGI in the assay on KM20L2 colon was greater than 800 µM; in the assay with HOP-18 NSCLC, 499 µM and 800 µM; in the assay on A498 renal, 500 µM and 800 µM and 691 µM; with SW-620 colon, greater than 1000 µM.

`O=C(CC1(O)C(=O)Nc2c(Cl)cc(Cl)cc21)c1cccc([N+](=O)[O-])c1` (stereo not given): the TGI in the assay on OVCAR-4 ovarian is 30 µM; with HS 578T breast, 94.9 µM; with K-562 leukemia it was 70.2 µM; in the assay on LOX IMVI melanoma, 35.5 µM; with DU-145 prostate, greater than 100 µM; with SK-MEL-28 melanoma, greater than 80.6 µM. For the same compound, the TGI in the assay with KM20L2 colon is greater than 100 µM; in the assay with HOP-18 NSCLC it was 98.6 µM; with A498 renal it was 66.8 µM; with SW-620 colon, greater than 64.4 µM.
